Patent US9629826B2, “CAI-based systems and methods for the localized treatment of uveitis” (Gen Pharma Holdings, LLC., priority 2014, dated 2017)
“Also recorded” adds a separate entry of the source.

Experiments:
[1] = system: neovascularization; test: Contemplated clinical cases: intravitreal or periocular CAI against neovascularization; type: in vivo; details: contemplated cases: 50 mcg intravitreal (Example 9); 200 mcg intravitreal then periocular sustained-release (Example 10)
Description: The following contemplated clinical cases of angiogenesis are presented as examples of methods of treatment and not as limitations. Other illustrations of treating systemic or localized angiogenesis are not presented, since the principles involved are similar, and will be apparent to the skilled reader based upon review of an individual's clinical manifestation and the preferred embodiments of the inventive compositions.
Person with Proliferative Diabetic Retinopathy and threshold high-risk characteristics presents with Vitreous Hemorrhage. The patient also has atrial fibrillation and ischemic cardiomyopathy that requires oral Coumadin. The patient is intolerant to topical Panretinal Photocoagulation. The INR measured at just less than 2. […] The patients Vitreous Hemorrhage slowly resolves and the patient is able to taper their Coumadin so that Panretinal Photocoagulation can be placed with retrobulbar anesthesia. Alternately, the patient remains on Coumadin and then is treated with a patch periocular insert of CAI to diminish the neovascularization.
Person with a two-week history of central scotoma. They developed a large disciform scar in the contralateral eye after several sessions of photodynamic therapy. On exam and fluorescein angiography is predominately classic subfoveal membrane is noted. […]

[2] = in vivo; cited from earlier work
[3] = systemic CAI; cited from earlier work
[4] = cited from earlier work
[5] = cited from earlier work; remark: listed apart in the source

NC(=O)c1nnn(Cc2cc(Cl)c(C(=O)c3ccc(Cl)cc3)c(Cl)c2)c1N [CAI]
neovascular regression [1]: some neovascular regression; also recorded: neovascular regression occurs
physiological tissue concentrations [2]: 1-10 μM
plasma concentrations associated with unacceptable toxicity [3]: above 100 micromolar
serious side effect associated with clinical use ([4]; systemic administration, two cases described): loss of vision
toxic effects observed in clinical studies ([4]; systemic oral dosage regimens): cerebellar ataxia, peripheral neuropathy and exacerbation of depression

C[C@@H]1C[C@H]2[C@@H]3CCC4=CC(=O)C=C[C@]4(C)[C@@]3(F)[C@@H](O)C[C@]2(C)[C@@]1(O)C(=O)CO [Dexamethasone]
concentration detected in the vitreous cavity ([5]; single 5 mg peribulbar injection in humans): 13 ng/mL
delivery to the subretinal space, higher following subconjunctival injection ([5]; subconjunctival injection): 10 fold
